This note sets out measurements from ChEMBL document CHEMBL1649077, “Synthesis and biological evaluation of aryl-phospho-indole as novel HIV-1 non-nucleoside reverse transcriptase inhibitors” (J Med Chem, 2011).

Data set [1] can be described thus: Antiviral activity against wild type HIV1 BH10 with reverse transcriptase K103N/Y181C double mutant infected human MT4 cells assessed as inhibition of virus-induced cytopathogenicity. As to conditions: Human immunodeficiency virus 1, MT4. The format is functional, cell-based, Human immunodeficiency virus type 1 BH10.
The nature of data set [2]: Antiviral activity against wild type HIV1 BH10 infected human MT4 cells assessed as inhibition of virus-induced cytopathogenicity. The format is functional, cell-based, Human immunodeficiency virus type 1 BH10. As to conditions: Human immunodeficiency virus 1, MT4.
Data set [3] is described as follows: Antiviral activity against wild type HIV1 BH10 with reverse transcriptase K103N single mutant infected human MT4 cells assessed as inhibition of virus-induced cytopathogenicity. Type of data set: functional, cell-based, Human immunodeficiency virus type 1 BH10. As to conditions: Human immunodeficiency virus 1, MT4.
Data set [4] can be described thus: Antiviral activity against wild type HIV1 BH10 with reverse transcriptase Y181C single mutant infected human MT4 cells assessed as inhibition of virus-induced cytopathogenicity. Type of data set: functional, cell-based, Human immunodeficiency virus type 1 BH10. As to conditions: Human immunodeficiency virus 1, MT4.
Data set [5] in a line: Metabolic stability of the compound in dog hepatocytes assessed as compound remaining after 4 hrs. The format is ADME, cell-based, Canis lupus familiaris, Hepatocyte. As to conditions: read-out: Stability.
Data set [6] in a line: Metabolic stability of the compound in human hepatocytes assessed as compound remaining after 4 hrs. Type of data set: ADME, cell-based, Hepatocyte. The settings on record: read-out: Stability.
A short description of data set [7]: Half life in rat at 5 mg/kg, po. Further details: dose 5 mg/kg, route oral. As to conditions: in vivo. Type of data set: ADME, organism-based.
Data set [8] in a line: Metabolic stability of the compound in monkey hepatocytes assessed as compound remaining after 4 hrs. As to conditions: rhesus monkey, read-out: Stability. The format is ADME, cell-based, Macaca mulatta, Hepatocyte.
The nature of data set [9]: Clearance in rat at 5 mg/kg, po. Type of data set: ADME, organism-based. Further details: dose 5 mg/kg, route oral. As to conditions: in vivo.
The nature of data set [10]: Oral bioavailability in rat at 5 mg/kg. The format is ADME, organism-based. The settings on record: in vivo.
A short description of data set [11]: Metabolic stability of the compound in rat hepatocytes assessed as compound remaining after 4 hrs. The format is ADME, cell-based, Hepatocyte. The settings on record: read-out: Stability.

For the molecule `CP(=O)(c1ccccc1)c1c(C(N)=O)[nH]c2ccc(Cl)cc12` (stereo unspecified), the EC50 in data set [1] is above 1.25 µM; in [2] it was 0.0008 µM; in data set [3], 1.38 µM; in data set [4], 0.266 µM.
As for `CCOP(=O)(c1ccccc1)c1c(C(N)=O)[nH]c2ccc(Cl)cc12` (stereo unspecified), the EC50 in data set [1] is above 1.25 µM; in data set [2], 0.0012 µM; in [3], 0.0164 µM; in data set [4], 0.0137 µM.
The corresponding values for `CO[P@](=O)(c1ccccc1)c1c(C(N)=O)[nH]c2ccc(Cl)cc12` are 0.137 µM, 0.0001 µM, 0.0012 µM and 0.0036 µM.
In the case of `NC(=O)c1[nH]c2ccc(Cl)cc2c1P(=O)(O)c1ccccc1`, the EC50 in [2] was above 1.25 µM.
As for `CN(C)P(=O)(c1ccccc1)c1c(C(N)=O)[nH]c2ccc(Cl)cc12` (stereo unspecified), the EC50 is above 1.25 µM in data set [1], 0.0139 µM in data set [2], above 1.25 µM in [3] and 0.467 µM in data set [4].
Turning to `COP(=S)(c1ccccc1)c1c(C(N)=O)[nH]c2ccc(Cl)cc12` (stereo unspecified), the EC50 in data set [1] was above 1.25 µM; in data set [2], 0.0004 µM; in data set [3], 0.0899 µM; in data set [4] it was 0.0414 µM.
`COP(=O)(c1ccccc1)c1c(C(N)=O)[nH]c2ccc(Cl)cc12` (racemic): the remaining at 4 h in data set [5] worked out at 100%; in data set [6] it was 99%; in data set [8], 49%; in data set [11], 100%. In data set [7], this molecule showed a half-life of 1.19 h. Moreover, in [9], the CL/F amounted to 2.85 mL/min/kg. Moreover, the bioavailability in data set [10] is 107%. Moreover, the EC50 in data set [1] is 0.447 µM; in data set [2] it was 0.0007 µM; in [3] it was 0.0068 µM; in data set [4], 0.0101 µM.
Turning to `NC(=O)c1[nH]c2ccc(Cl)cc2c1P(=O)(c1ccccc1)c1ccccc1`, in data set [2], the EC50 is above 1.25 µM.
`CO[P@@](=O)(c1ccccc1)c1c(C(N)=O)[nH]c2ccc(Cl)cc12`: the EC50 was above 1.25 µM in data set [1], 0.182 µM in data set [2], above 1.25 µM in [3] and above 1.25 µM in data set [4].
On to `NC(=O)c1[nH]c2ccc(Cl)cc2c1P(=O)(OCc1ccccc1)c1ccccc1` (stereo unspecified), for which the EC50 in data set [1] was above 1.25 µM; in [2], 0.0337 µM; in data set [3] it was above 1.25 µM; in [4] it was above 1.25 µM.
